This data set is described as follows: xn = mol fraction of the nth substance listed. Particulars: 101 kPa, x1 = 0.3333.

In general, viscosity refers to the resistance of a fluid to flow.

As to `CCOS(=O)(=O)[O-].CC[n+]1ccn(C)c1` + CS(C)=O, the viscosity (283.15 K) was 4.35 mPa·s; the viscosity (298.15 K) was found to be 3.16 mPa·s; the viscosity (303.15 K) is recorded as 2.83 mPa·s; the viscosity (308.15 K) worked out at 2.53 mPa·s; the viscosity (318.15 K) amounted to 2.02 mPa·s; the viscosity (323.15 K) is 1.82 mPa·s. Also, the viscosity runs as follows: (328.15 K) 1.64 mPa·s; (333.15 K) 1.5 mPa·s; (338.15 K) 1.39 mPa·s; (343.15 K) 1.32 mPa·s; (353.15 K) 1.24 mPa·s.

Take `CC[n+]1ccn(C)c1.N#C[S-]` + CS(C)=O: the viscosity reads like this: (283.15 K) 3.95 mPa·s; (288.15 K) 3.58 mPa·s; (298.15 K) 2.92 mPa·s; (303.15 K) 2.63 mPa·s; (313.15 K) 2.12 mPa·s; (318.15 K) 1.91 mPa·s. Moreover, the viscosity reads like this: (323.15 K) 1.73 mPa·s; (333.15 K) 1.44 mPa·s; (338.15 K) 1.34 mPa·s; (343.15 K) 1.26 mPa·s; (348.15 K) 1.21 mPa·s; (353.15 K) 1.19 mPa·s.
